According to patent US20230203043A1, “NOVEL IMIDAZOPYRAZINE DERIVATIVES” (Hoffmann-La Roche Inc., priority 2020, published 2023):
Counter-ions that a name gives are not always drawn.

test system: Acinetobacter baumannii ATCC17961; assay: Antimicrobial susceptibility testing: 90% growth inhibitory concentration (IC90) determination in Iso-Sensitest broth, OD600 growth; format: cell-based; conditions: Acinetobacter baumannii, ATCC17961, 16 h, read-out: A. baumannii ATCC 17961 IC90 (uM), strain ATCC 17961, OD600 growth over 16 h
Method in brief: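 Twofold compound dilutions (e.g. 50 to 0.097 μM final) in Iso-Sensitest broth with ~5×10^(5) CFU/ml, 35±2 °C. OD600 read every 20 min over 16 h; IC90 from growth inhibition during logarithmic phase.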

Row | Structure (SMILES) | IC90 [µM]
1 | CCc1cc(Nc2nccn3c(-c4cn(CC#N)nc4C(F)(F)F)cnc23)ccc1C(=O)NCCNC(=O)CN [Example 620, N-(2-(2-aminoacetamido)ethyl)-4-((3-(1-(cyanomethyl)-3-(trifluoromethyl)-1H-pyrazol-4-yl)imidazo[1,2-a]pyrazin-8-yl)amino)-2-ethylbenzamide formate] | 0.139
2 | CCc1cc(Nc2nccn3c(-c4cn(CC#N)nc4C(F)(F)F)cnc23)ccc1C(=O)NCC1CC1N (stereo not drawn) [Example 623, N-((2-aminocyclopropyl)methyl)-4-((3-(1-(cyanomethyl)-3-(trifluoromethyl)-1H-pyrazol-4-yl)imidazo[1,2-a]pyrazin-8-yl)amino)-2-ethylbenzamide formate] | 0.161
3 | CCc1cc(Nc2nccn3c(-c4cn(CC#N)nc4C(F)(F)F)cnc23)ccc1C(=O)NCCNC(=O)[C@@H](C)N [Example 625, (R)-N-(2-(2-aminopropanamido)ethyl)-4-((3-(1-(cyanomethyl)-3-(trifluoromethyl)-1H-pyrazol-4-yl)imidazo[1,2-a]pyrazin-8-yl)amino)-2-ethylbenzamide formate] | 0.176
4 | CCc1cc(Nc2nccn3c(-c4cn(CC#N)nc4C(F)(F)F)cnc23)ccc1C(=O)NCCCNC(=O)[C@@H](C)N [Example 626, (R)-N-(3-(2-aminopropanamido)propyl)-4-((3-(1-(cyanomethyl)-3-(trifluoromethyl)-1H-pyrazol-4-yl)imidazo[1,2-a]pyrazin-8-yl)amino)-2-ethylbenzamide formate] | 0.233
5 | CCc1cc(Nc2nccn3c(-c4cn(CC(F)F)nc4C(F)(F)F)cnc23)ccc1C(=O)NCCCNC(=O)[C@H](C)N [Example 628, (S)-N-(3-(2-aminopropanamido)propyl)-4-((3-(1-(2,2-difluoroethyl)-3-(trifluoromethyl)-1H-pyrazol-4-yl)imidazo[1,2-a]pyrazin-8-yl)amino)-2-ethylbenzamide formate] | 0.195
6 | CCc1cc(Nc2nccn3c(-c4cn(CC(F)F)nc4C(F)(F)F)cnc23)ccc1C(=O)NCCCNC(=O)CCN [Example 630, N-(3-(3-aminopropanamido)propyl)-4-((3-(1-(2,2-difluoroethyl)-3-(trifluoromethyl)-1H-pyrazol-4-yl)imidazo[1,2-a]pyrazin-8-yl)amino)-2-ethylbenzamide formate] | 0.206
7 | CCc1cc(Nc2nccn3c(-c4cn(CC(F)F)nc4C(F)(F)F)cnc23)ccc1C(=O)NCCCNC(=O)[C@@H](C)N [Example 633, (R)-N-(3-(2-aminopropanamido)propyl)-4-((3-(1-(2,2-difluoroethyl)-3-(trifluoromethyl)-1H-pyrazol-4-yl)imidazo[1,2-a]pyrazin-8-yl)amino)-2-ethylbenzamide formate] | 0.214
8 | CCc1cc(Nc2nccn3c(-c4cn(C(C)C#N)nc4C(F)(F)F)cnc23)ccc1C(=O)NCCOCCCN (stereo not drawn) [Example 639, N-(2-(3-aminopropoxy)ethyl)-4-((3-(1-(1-cyanoethyl)-3-(trifluoromethyl)-1H-pyrazol-4-yl)imidazo[1,2-a]pyrazin-8-yl)amino)-2-ethylbenzamide formate] | 0.228
9 | CCc1cc(Nc2nccn3c(-c4cn(CC(F)F)nc4C(F)(F)F)cnc23)ccc1C(=O)NCC1CC1N (stereo not drawn) [Example 641, N-((2-aminocyclopropyl)methyl)-4-((3-(1-(2,2-difluoroethyl)-3-(trifluoromethyl)-1H-pyrazol-4-yl)imidazo[1,2-a]pyrazin-8-yl)amino)-2-ethylbenzamide formate] | 0.231
10 | CCc1cc(Nc2nccn3c(-c4cn(CC(F)F)nc4C(F)(F)F)cnc23)ccc1C(=O)NCC(=O)NC1CC(N)C1 (stereo not drawn) [Example 642, N-[2-[(3-aminocyclobutyl)amino]-2-oxo-ethyl]-4-[[3-[1-(2,2-difluoroethyl)-3-(trifluoromethyl)pyrazol-4-yl]imidazo[1,2-a]pyrazin-8-yl]amino]-2-ethyl-benzamide formate] | 0.232
11 | CCc1cc(Nc2nccn3c(-c4cn(CC(F)F)nc4C(F)(F)F)cnc23)ccc1C(=O)NCCNC(=O)[C@@H](C)N [Example 643, (R)-N-(2-(2-aminopropanamido)ethyl)-4-((3-(1-(2,2-difluoroethyl)-3-(trifluoromethyl)-1H-pyrazol-4-yl)imidazo[1,2-a]pyrazin-8-yl)amino)-2-ethylbenzamide formate] | 0.232

same assay, conditions: Acinetobacter baumannii, ATCC17961, 16 h, strain ATCC 17961, OD600 growth over 16 h, read-out: A. baumannii ATCC 17961 IC90

Row | Structure (SMILES) | IC90 [µM]
12 | CCc1cc(Nc2nccn3c(-c4cn(CC(F)F)nc4C(F)(F)F)cnc23)ccc1C(=O)NCCOCCN1CCCC1 [Example 621, 4-((3-(1-(2,2-difluoroethyl)-3-(trifluoromethyl)-1H-pyrazol-4-yl)imidazo[1,2-a]pyrazin-8-yl)amino)-2-ethyl-N-(2-(2-(pyrrolidin-1-yl)ethoxy)ethyl) benzamide formate] | 0.144
13 | CCc1cc(Nc2nccn3c(-c4c[nH]nc4C(F)(F)F)cnc23)ccc1C(=O)NCCCNC(=O)N1CC[C@@H](N)C1 [Example 631, (R)-3-amino-N-(3-(2-ethyl-4-((3-(3-(trifluoromethyl)-1H-pyrazol-4-yl)imidazo[1,2-a]pyrazin-8-yl)amino)benzamido)propyl) pyrrolidine-1-carboxamide] | 0.209
14 | O=C(c1ccc(Nc2nccn3c(-c4cn(CC(F)F)nc4C(F)(F)F)cnc23)cc1Cl)N1CC2(C1)CN(C(=O)[C@@H]1CCCN1)C2 [Example 635, (S)-(2-chloro-4-((3-(1-(2,2-difluoroethyl)-3-(trifluoromethyl)-1H-pyrazol-4-yl)imidazo[1,2-a]pyrazin-8-yl)amino)phenyl)(6-prolyl-2,6-diazaspiro [3.3]heptan-2-yl)methanone] | 0.22
15 | N#CCn1cc(-c2cnc3c(Nc4ccc(C(=O)N5CC6(C5)CN(C(=O)[C@@H]5CCCN5)C6)c(Cl)c4)nccn23)c(C(F)(F)F)n1 [Example 636, (S)-2-(4-(8-((3-chloro-4-(6-prolyl-2,6-diazaspiro[3.3]heptane-2-carbonyl)phenyl)amino)imidazo[1,2-a]pyrazin-3-yl)-3-(trifluoromethyl)-1H-pyrazol-1-yl)acetonitrile] | 0.222
16 | CCc1cc(Nc2nccn3c(-c4cn(CCF)nc4C(F)(F)F)cnc23)ccc1C(=O)NCC1CC1N (stereo not drawn) [Example 640, N-((2-aminocyclopropyl)methyl)-2-ethyl-4-((3-(1-(2-fluoroethyl)-3-(trifluoromethyl)-1H-pyrazol-4-yl)imidazo[1,2-a]pyrazin-8-yl)amino) benzamide formate] | 0.229

Now from value to compound:

Row | IC90 [µM] | Structure (SMILES)
17 | 0.148 | CCc1cc(Nc2nccn3c(-c4cn(CCOC(F)(F)F)nc4C(F)(F)F)cnc23)ccc1C(=O)NCCOCCN [Example 622, N-(2-(2-aminoethoxy)ethyl)-2-ethyl-4-((3-(1-(2-(trifluoromethoxy)ethyl)-3-(trifluoromethyl)-1H-pyrazol-4-yl)imidazo[1,2-a]pyrazin-8-yl)amino)benzamide]
18 | 0.19 | CCc1cc(Nc2nccn3c(-c4cn(CC(F)F)nc4C(F)(F)F)cnc23)ccc1C(=O)NCCNC(=O)[C@H]1C[C@@H](N)C1 [Example 624, cis-N-(2-((1s,3s)-3-aminocyclobutane-1-carboxamido)ethyl)-4-((3-(1-(2,2-difluoroethyl)-3-(trifluoromethyl)-1H-pyrazol-4-yl)imidazo[1,2-a]pyrazin-8-yl)amino)-2-ethylbenzamide formate]
19 | 0.19 | CCc1cc(Nc2nccn3c(-c4cn(CC(F)F)nc4C(F)(F)F)cnc23)ccc1C(=O)NCCCNC(=O)[C@@H]1CCCN1 [Example 627, (S)-N-(3-(4-((3-(1-(2,2-difluoroethyl)-3-(trifluoromethyl)-1H-pyrazol-4-yl)imidazo[1,2-a]pyrazin-8-yl)amino)-2-ethylbenzamido)propyl) pyrrolidine-2-carboxamide]
20 | 0.198 | C=CCn1cc(-c2cnc3c(Nc4cc(C)c(C(=O)N5CCN(C(=O)[C@H]6CC[C@H](O)N6)CC5)c(F)c4)nccn23)c(C(F)(F)F)n1 [Example 629, (4-(4-((3-(1-allyl-3-(trifluoromethyl)-1H-pyrazol-4-yl)imidazo[1,2-a]pyrazin-8-yl)amino)-2-fluoro-6-methylbenzoyl)piperazin-1-yl)((2R,5S)-5-hydroxypyrrolidin-2-yl)methanone]
21 | 0.209 | CCc1cc(Nc2nccn3c(-c4cn(CC(F)F)nc4C(F)(F)F)cnc23)ccc1C(=O)NCCCNC(=O)N1CC[C@@H](N)C1 [Example 632, (R)-3-amino-N-(3-(4-((3-(1-(2,2-difluoroethyl)-3-(trifluoromethyl)-1H-pyrazol-4-yl)imidazo[1,2-a]pyrazin-8-yl)amino)-2-ethylbenzamido)propyl) pyrrolidine-1-carboxamide formate]
22 | 0.218 | CCc1cc(Nc2nccn3c(-c4c[nH]nc4C(F)(F)F)cnc23)ccc1C(=O)NCCCNC(=O)[C@@H]1CCCN1 [Example 634, (S)-N-(3-(2-ethyl-4-((3-(3-(trifluoromethyl)-1H-pyrazol-4-yl)imidazo[1,2-a]pyrazin-8-yl)amino)benzamido)propyl) pyrrolidine-2-carboxamide]
23 | 0.226 | CCc1cc(Nc2nccn3c(-c4cn(CC#N)nc4C(F)(F)F)cnc23)ccc1C(=O)NCCNC(=O)[C@@H]1C[C@@H](O)CN1 [Example 637, (2S,4R)-N-(2-(4-((3-(1-(cyanomethyl)-3-(trifluoromethyl)-1H-pyrazol-4-yl)imidazo[1,2-a]pyrazin-8-yl)amino)-2-ethylbenzamido)ethyl)-4-hydroxypyrrolidine-2-carboxamide]
24 | 0.226 | CCc1cc(Nc2nccn3c(-c4cn(CC(F)F)nc4C(F)(F)F)cnc23)ccc1C(=O)NCC(=O)N[C@H]1CCNC1 [Example 638, 4-[[3-[1-(2,2-difluoroethyl)-3-(trifluoromethyl)pyrazol-4-yl]imidazo[1,2-a]pyrazin-8-yl]amino]-2-ethyl-N-[2-oxo-2-[[(3S)-pyrrolidin-3-yl]amino]ethyl] benzamide formate]
